The text below walks through data of patent US20110207694A1, “MAMMALIAN HYPOTHALAMIC NUTRIENT MODULATION OF GLUCOSE METABOLISM” (priority 2005, published 2011).

Format in all cases: in vivo, rat
The subject of one experiment is rats. Put plainly: Food intake after central (ICV) glucose or lactate. As to conditions: central administration.
Experiment [1] has as its system phospho-ACC, ACC, FAS, MTP and ApoB. Description: Western blot of liver proteins after ICV glucose. Here is the method: Western blot analyses. Liver tissue (50-100 mg) was homogenized in a detergent-based lysis buffer (M-PER, Pierce) supplemented with protease and phosphatase inhibitors. The extracts were incubated on ice for 20 min and then centrifuged at 15,000×g to remove tissue debris; the supernatants were saved and frozen at −80 C until analysis. Fifty μg of protein were heat-denatured in SDS-PAGE sample buffer and resolved on denaturing (SDS) 10% polyacrylamide gels (SDS-PAGE). Fractionated proteins were electrophoretically transferred to nitrocellulose membranes by standard procedures. Membranes were immunoblotted with the appropriate primary antibodies and immune complexes were detected by enhanced chemiluminescence (ECL) (Western Lightning, Perkin Elmer Life Sciences) using horseradish peroxidase conjugated secondary antibodies. Bands were imaged on X-ray film and digitized for quantification using ImageQuant software (Molecular Dynamics). β-tubulin was used for loading normalization. Antibodies. Rabbit antibodies to acetyl Co-A carboxylase and phospho-acetyl Co-A carboxylase (Ser79) were from Cell Signaling Technology (Beverly, Mass.); fatty acid synthetase (FAS) and microsomal triglyceride transfer protein (MTP) antibodies were from BD Biosciences Pharmingen (San Jose, Calif.); cholesterol hydroxylase 7α (CYP7A1) and ApoB-100 antibodies were from Santa Cruz Biotechnology (Santa Cruz, Calif.); mouse monoclonal β-tubulin antibodies were obtained from Covance Research Products (Berkeley, Calif.).

The next experiment concerns conscious rats. Put plainly: ICV glucose or lactate infusion with pancreatic basal insulin clamp: plasma glucose and liver glucose production. The text has this: We hypothesize that the hypothalamic sensing of glucose-derived pyruvate is a novel regulator of endogenous glucose production (GP). […] We propose that an increase in neuronal pyruvate levels is a hypothalamic signal of nutrient availability.
Long chain fatty acids in the brain decrease glucose production (GP) by the liver via activation of hypothalamus ATP-sensitive (KATP) channels. Here we tested whether (A) direct administration of glucose in the third cerebral ventricle can alter glucose production by the liver, and (B) whether this effect requires its metabolism in the TCA cycle.

Experiment [2] deals with Stearoyl-CoA Desaturase 1 (SCD1). Put plainly: Liver SCD1 activity, SCD1 mRNA and LCFA-CoA measurements. On the procedure: Treatment with SCD1 ASO. Five and two days before the lipoprotein secretion studies, rats received a single intra-peritoneal injection of either SCD1 or scrambled (SCR) ASO (100 mg/kg of body weight). […] In a separate set of studies, rats received intra-portal injection of either SCD1 or SCR ASO (40 mg/kg of body weight) (Gutierrez-Juarez et al., 2006) three days before the lipoprotein secretion studies.
Liver LCFA-CoA measurements. The liver was sampled and the LCFA-CoAs were extracted from the liver and measured by high-performance liquid chromatography (HPLC) as previously described (Lam et al., 2005c).
Stearoyl-CoA Desaturase 1 (SCD1) activity. CD1 activity assays were performed essentially as described (Cohen et al., 2002) using 1-[^14C]-stearoyl-CoA as a substrate. At the end of the reaction incubation long-chain acyl CoAs (LC Acyl-CoAs) were extracted and fractionated by reverse-phase HPLC as previously reported (Lam et al., 2005c). Chromatographically resolved stearoyl CoA (C18:0) and oleyl-CoA (C18:1) peaks were collected and counted in a β-scintillation counter. Protein was assayed by the bicinchoninic acid (BCA) method using a commercially available kit (Pierce Biotechnology, Rockford, Ill.) according to the manufacturer's instructions.
Gene expression. Stearoyl-CoA Desaturasel (SCD1) mRNA was measured by quantitative real-time PCR. Briefly, total RNA was extracted from either liver or fat tissue using the Trizol reagent (Invitrogen, Carlsbad, Calif.) according to the manufacturer instructions. cDNA was then synthesized from 2 μg of total RNA using the Superscript® III First-Strand kit TM? (Invitrogen, Carlsbad, Calif.). Samples of RNA in which the reverse transcriptase was omitted (no RT controls) were also included. The cDNA and no RT controls were diluted 1:20 with PCR grade water and 2 μl from each sample was used for PCR in a total volume of 20 μl. The FastStart DNA Master SYBR Green I kit (Roche Applied Science, Indianapolis, Ind.) and a LightCycler® 2 instrument (Roche Applied Science, Indianapolis, Ind.) were used in all experiments. Either 18S mRNA expression was routinely measured for normalization purposes. The primer sequences used were as follows: 5′-[…]-3′ and 5′-[…]-3′ for Scd1; and 5′-[…]-3′ and 5′-[…]-3′ for ribosomal 18S. The mRNA copy number was calculated from standard curves obtained using cloned target templates (plasmid DNA) of known copy number for each gene of interest.

Another experiment deals with mediobasal hypothalamus. Put plainly: Intrahypothalamic (IH) infusion of glucose or DCA with pancreatic basal insulin clamp. As to conditions: IH administration. The text has this:
FIG. 3 is a diagram of experimental protocols (Panel (a)) and graphs of results of those experiments utilizing intrahypothalamic (IH) infusions of glucose.
FIG. 4 is a schematic and graphs of experimental results showing the effect of dichloroacetate (DCA), an inhibitor of pyruvate dehydrogenase kinase, having the effect of activating pyruvate dehydrogenase (PDH). The schematic of Panel (a) illustrates the PDH activation effect of DCA in the context of glucose metabolism, the TCA cycle, and nervous system cells.
We have localized the effect of glucose on liver glucose production to the mediobasal hypothalamus. This was accomplished using bilateral intraparenchymal (rather than ICY) delivery of both glucose and the KATP blocker GLI.

Where [3] appears, read: central administration of glucose.

On to `O=C[C@H](O)[C@@H](O)[C@H](O)[C@H](O)CO` [glucose, D-glucose], for which the food intake overnight entry in the experiment on rats was “inhibits food intake overnight”. Also, the “hepatic content of lipogenic enzymes acetyl-CoA carboxylase and fatty acid synthase” value in experiment [1] (ICV glucose) was “failed to alter the hepatic content of these lipogenic enzymes”. Moreover, in experiment [1] (setting [3]), the “expression of MTP in the liver” value is on record as “not affected” and the “hepatic ApoB48 levels” value is “not decreased”. In addition, in the experiment with conscious rats (central (ICV) administration), the circulating glucose levels entry was “lowered circulating glucose levels”. In the experiment with conscious rats (central administration), the gluconeogenesis and glycogenolysis entry was “inhibited gluconeogenesis and glycogenolysis”; the “liver glucose production, G6Pase flux and mRNA” value is “reduced liver glucose production, G6Pase flux and mRNA”. In addition, in the experiment with conscious rats (four hour ICV infusion 5 μl/h (glucose 2 mM, lactate 5 mM), control 150±4), the plasma glucose concentrations stood at 133 ± 5 mg/dL. Besides, in the experiment with conscious rats (pancreatic basal insulin clamps, central administration), the “exogenous glucose infusion rate required to maintain euglycemia” value was “increased exogenous glucose infusion rate”. Further, in the experiment on conscious rats (pancreatic clamps, plasma glucose and insulin at basal, ICV infusion, control 10.4±0.1 (glucose), 11.7±0.6 (lactate)), the “GP (glucose production)” value came out at 7.4 ± 0.3 mg/kg/min. In experiment [2] (ICV glucose), the “decrease in hepatic expression and activity of SCD1” value was about 70%; the “hepatic desaturation index (oleyl-CoA over stearoyl-CoA)” value is given as “reduction in the hepatic desaturation index”; the “hepatic oleyl-CoA levels” value is on record as “decreased the levels of oleyl-CoA”; the “hepatic stearoyl-CoA levels” value is on record as “increasing those of stearoyl-CoA”. Besides, in experiment [2] (after 1 h (60 min) of ICV glucose infusion), the “hepatic oleyl-CoA levels, desaturation index and SCD1 activity” value is “Significant decreases in hepatic oleyl-CoA levels, desaturation index, and SCD1 activity”. In the experiment on mediobasal hypothalamus, the circulating glucose levels entry is given as “lowered circulating glucose levels”. In the experiment on mediobasal hypothalamus (clamp), the glucose production result is “suppressed liver glucose production” and the glucose utilization result is recorded as “unchanged”. Also, in the experiment with mediobasal hypothalamus (pancreatic basal insulin clamps), the “exogenous glucose infusion rate to maintain euglycemia” value is “increased exogenous glucose infusion rate”.
